# Measured values as given in article PMC5698418 (Nature Communications, 2017).
# Numbering of substitutions follows the chain as printed. Names may count otherwise. Like-named read-outs stand apart in the source and are kept apart here.
# B1: K24Q: acetyl-mimic/unmodifiable mutant Arc-Myc-FLAG, lysine 24 to glutamine (protein, UniProt Q9WV31 1-396, looked up, variant K24Q)
# Activity-regulated …: MELDHMTTGGLHAYPAPRGGPAAQPNVILQIGKCRAEMLEHVRRTHRHLLTEVSKQVERELKGLHRSVGKLENNLDGYVPTGDSQRWKKSIKACLCRCQETIANLERWVKREMHVWREVFYRLERWADRLESMGGKYPVGSEPARHTVSVGVGGPEPYCQEADGYDYTVSPYAITPPPAAGELPEQESVEAQQYQSWGPGEDGQPSPGVDTQIFEDPREFLSHLEEYLRQVGGSEEYWLSQIQNHMNGPAKKWWEFKQGSVKNWVEFKKEFLQYSEGTLSREAIQRELELPQKQGEPLDQFLWRKRDLYQTLYVDAEEEEIIQYVVGTLQPKLKRFLRHPLPKTLEQLIQRGMEVQDGLEQAAEPSGTPLPTEDETEALTPALTSESVASDRTQPE
# modifications: Myc-FLAG tag
# notes: acetyl-mimic/unmodifiable mutant Arc-Myc-FLAG, lysine 24 to glutamine
# B2: K70Q: acetyl-mimic/unmodifiable mutant Arc-Myc-FLAG, lysine 70 to glutamine (protein, UniProt Q9WV31 1-396, looked up, variant K70Q)
# Activity-regulated …: B1 Activity-regulated … with Q24K, K70Q
# modifications: Myc-FLAG tag
# notes: acetyl-mimic/unmodifiable mutant Arc-Myc-FLAG, lysine 70 to glutamine
# Columns and labels:
# [1] = tested on: acetyl-H3K9; experiment: Acetyl-H3K9 immunofluorescence in neuronal nuclei (multiplexed in screen); type: cell-based, mouse; conditions: screen, 16.7 µM
# Experimental: To increase the throughput of our pharmacological screening for modulators of Arc, the above mentioned assay was adapted to cultures of mouse primary cortical neurons in 96-well plates.
# Screening of compounds in the chemogenomic library was carried out using DIV13 primary forebrain cortical neurons cultured on poly-L-lysine/laminin-coated 96-well plates (Ibidi USA, Madison, WI). Cells were seeded at a density of 30,000 cells per well and treated with the compound library and BDNF according to the experimental design presented in Fig. 3a. After experimental treatment, cells were processed for Arc and acetyl-H3K9 immunocytochemistry according to the protocol described above. Both antigens (Arc and acetyl-H3K9) were imaged using an IN Cell Analyzer 6000 imaging system and a ×40 objective. […] High-throughput quantification of nuclear Arc immunofluorescence signal was performed in a similar fashion than the low-throughput procedure described above but with the exception that acetyl-H3K9 was used as a nuclear mask to guide the automated quantification of nuclear Arc immunofluorescence signal.
# [2] = biological target: T1, HDAC1 (Homo sapiens, UniProt Q13547); experiment: Biochemical HDAC assay (BPS Bioscience), HDAC1; conditions: 25 µM
# T1 construct: purchased BPS Bioscience (San Diego, CA), contract assay service
# [3] = tested on: surface GluA1; experiment: Surface AMPAR (GluA1) imaging along dendrites; type: cell-based, mouse; conditions: 16.7 µM, 6 h with BDNF, vs untreated and BDNF alone; for BDNF: BDNF alone vs baseline
# Experimental: Our procedure to label surface AMPARs containing the GluA1 subunit was adapted from two reports[14],[61]. Precisely, DIV14 primary cortical neurons cultured on coverslips were rinsed once with room temperature PBS^MC (PBS containing 0.5 mM CaCl2, 1 mM MgCl2, and 4% sucrose). Live cells were then incubated for 30 min at room temperature with GluA1 primary antibody solution (PBS^MC with antibody against the extracellular N-terminus of GluA1 (EMD Millipore Corp, clone RH95, 5.0 µg ml^−1)). Next, cells were rinsed twice with ice-cold PBS^MC followed by fixation with 4% paraformaldehyde + 4% sucrose solution for 15 min at room temperature. After fixation, neurons were washed with regular PBS and then incubated overnight with Map2 primary antibody solution (PBS with 0.125% Triton X-100, 5% normal goat serum, and anti-Map2 antibody) to label dendrites. Next day, coverslips were washed with PBS, incubated with appropriate secondary antibodies for 1 h at room temperature, and finally mounted on glass slides with ProLong Antifade reagent (Invitrogen).
# (§1) Quantification of surface GluA1 puncta was performed according to the following strategy. First, overlapping digital images of GluA1 and Map2 immunostainings were collected using a Zeiss AxioObserver Z1 inverted microscope and ×63 oil immersion objective. Second, thresholding and segmentation based on the Map2 images was used to remove GluA1 signals outside of dendritic processes. Importantly, the same background/foreground cutoff threshold was used for images of all experimental conditions. Third, the length of dendrites for each image set was measured and recorded. Finally, distinct GluA1 foreground objects along dendrites >5 pixels were counted using the particle analysis tool in ImageJ and presented as the average number of GluA1 puncta per µm of dendrite length for each experimental condition.
# [4] = tested on: BDNF-induced nuclear Arc expression in primary cortical neurons; experiment: Chemogenomic screen: high-content image-based assay of BDNF-induced nuclear Arc expression (96-well); type: cell-based, mouse
# How it was run: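 Nuclear Arc immunofluorescence is quantified automatically within an acetyl-H3K9-defined nuclear mask from ×40 images. Cultures are DIV13 mouse forebrain cortical neurons seeded at 30,000 per well and exposed to BDNF plus compound at a final 16.7 µM, with triplicate biological replicates.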
# [5] = tested on: Arc puncta in dendrites of primary cortical neurons; experiment: Arc puncta along Map2-labeled dendrites (immunocytochemistry); type: cell-based, mouse; conditions: 16.7 µM with BDNF, vs untreated and BDNF alone; for BDNF: BDNF alone vs untreated
# Description: Chemical structure of each compound is presented on top. b Graphs show mean (n = 5) Arc/β-actin ratio (±SEM) for cells treated as in a. […] Tukey’s HSD post hoc test, *p < 0.05; **p < 0.01, ***p < 0.005; ****p < 0.0001. […] Representative captures of DIV14 mouse primary cortical neurons from each experimental condition co-immunostained for Arc (red fluorophore) and Map2 (green fluorophore). White arrowheads show examples of discrete Arc puncta. […] Tukey’s HSD post hoc test, *p < 0.05; ***p < 0.005; ****p < 0.0001
# Indirect immunofluorescence detection of antigens was carried out using cortical neurons cultured on poly-L-lysine/laminin-coated coverslips in 24-well plates at a density of 0.1 × 10^7 per well. After experimental treatment, cells were washed twice with PBS and fixed for 30 min at room temperature with 4% paraformaldehyde in PBS. After fixation, cells were washed twice with PBS, permeabilized with PBST (PBS + 0.25% Triton X-100) for 20 min, blocked in blocking solution (PBS + 5% normal goat serum) for another 30 min, and finally incubated overnight at 4 °C with the first primary antibody in blocking solution. The next day, coverslips were extensively washed with PBS and incubated for 2 h at room temperature in the appropriate fluorophore-conjugated secondary antibody solution (Alexa 488- or Alexa 594-conjugated secondary antibody (Molecular Probes, Invitrogen) in blocking solution). After washing with PBS, the coverslips were incubated again overnight in primary antibody solution for the second antigen, and the procedure for conjugation of the fluorophore-conjugated secondary antibody was repeated as above. Finally, cell nuclei were counterstained with 4′,6-diamidino-2-phenylindole (DAPI), and coverslips were mounted on glass slides with ProLong Antifade reagent (Invitrogen).
# as §1
# [6] = biological target: T2, HDAC2 (Homo sapiens, UniProt Q92769); experiment: Biochemical HDAC assay (BPS Bioscience), HDAC2; conditions: 25 µM
# T2 construct: purchased BPS Bioscience (San Diego, CA), contract assay service
# [7] = biological target: T3, HDAC3 (Homo sapiens, UniProt O15379); experiment: Biochemical HDAC assay (BPS Bioscience), HDAC3; conditions: 25 µM
# T3 construct: purchased BPS Bioscience (San Diego, CA), contract assay service
# [8] = tested on: Arc protein; experiment: Western blot of total Arc protein in primary cortical neurons; type: cell-based, mouse; conditions: BDNF 6 h supplemented with compound
# Experimental: Forebrains of E16.5 C57BL/6 mouse embryos were dissected and then dissociated in trypsin solution for 15 min followed by three washes with phosphate-buffered saline (PBS). Single-cell suspension was achieved by gentle pipet trituration. Neurons were seeded in poly-L-lysine/laminin-coated six-well plates at a density of 2 × 10^6 per well and maintained in neurobasal medium containing B27 supplement (2%, Invitrogen, Grand Island, NY), penicillin (50 units ml^−1, Invitrogen), streptomycin (50 µg ml^−1, Invitrogen), and glutamine (1 mM, Sigma). For experiments involving BDNF (EMD Millipore Corps, Billerica, MA), the stock solution (2 ng µl^−1 in water) was added directly to the culture medium at a final concentration of 100 ng ml^−1 for the indicated period of time.
# For western blot analyses, cells were collected by scraping in ice-cold radioimmunoprecipitation assay (RIPA) buffer (50 mM Tris-HCl (pH 8.0), 300 mM NaCl, 0.5% Igepal-630, 0.5% deoxycholic acid, 0.1% SDS, 1 mM EDTA) supplemented with a cocktail of protease inhibitors (Complete Protease Inhibitor without EDTA, Roche Applied Science, Indianapolis, IN) and phosphatase inhibitors (phosphatase inhibitor cocktail A, Santa Cruz Biotechnology). One volume of 2× Laemmli buffer (100 mM Tris-HCl (pH 6.8), 4% SDS, 0.15% bromophenol blue, 20% glycerol, 200 mM β-mercaptoethanol) was added and the extracts were boiled for 5 min. Samples were adjusted to an equal concentration after protein concentrations were determined using the BCA assay (Pierce, Thermo Fisher Scientific). Lysates were separated using SDS–PAGE and transferred to a nitrocellulose membrane. After transfer, the membrane was blocked in TBST (Tris-buffered saline + 0.1% Tween 20) supplemented with 5% nonfat powdered milk and probed with the indicated primary antibody at 4 °C overnight. After washing with TBST, the membrane was incubated with the appropriate secondary antibody and visualized using enhanced chemiluminescence (ECL) reagents according to the manufacturer’s guidelines (Pierce, Thermo Fisher Scientific).
# The following procedure was used to quantify western blots. First, equal quantity of protein lysate was analyzed by SDS–PAGE for each biological replicate. Second, the exposure time of the film to the ECL chemiluminescence was the same for each biological replicate. Third, all the exposed films were scanned on a Brother MFC-J485DW scanner in grayscale at a resolution of 300 dpi. Fourth, the look-up table (LUT) of the scanned tiff images was inverted and the intensity of each band was individually measured using the selection tool and the histogram function in Adobe Photoshop CC 2015 software. […]
# [9] = tested on: Arc protein; experiment: Arc protein half-life after cycloheximide block in primary cortical neurons; type: cell-based, mouse; conditions: BDNF 4 h, then CHX plus oxamflatin; vehicle baseline ~47 min
# Experimental: Each compound was tested at a concentration of 16.7 µM and in combination with BDNF or alone. Arc mRNA level induced by just BDNF was included in each experiment as a reference. Bars represent mean fold-change (f.c.) normalized to Arc expression measured in untreated cultures and each red point represents fold-change for an individual biological replicate (n = 4). d Primary cortical neurons were treated with BDNF for 4 h to induce Arc expression at which point protein synthesis was blocked by direct addition to culture media of cycloheximide (CHX, 50 µg ml^−1) in presence of vehicle or oxamflatin (16.7 µM). […] It is left out because the vehicle is a control and not a substance.
# Specifically, we stimulated the cells with BDNF for 4 h to promote accumulation of Arc protein and then added CHX to block all de novo protein translation. Importantly, cultures treated this way were divided in two groups—one to which oxamflatin was added at the same time as CHX and another that was treated with the vehicle only (baseline measure). […] This experiment provided clear evidence that the impact of oxamflatin on Arc protein abundance is, at least in part, the result of a decrease in the rate of Arc protein degradation; however, a mechanistic explanation of how this KDAC inhibitor is modulating the turnover of Arc protein remained elusive at this point.
# [10] = tested on: Neuro2a cells; experiment: Polyubiquitination of WT and mutant Arc-Myc-FLAG (IP/western) in Neuro2a cells; type: cell-based, mouse; conditions: MG132 10 µM for 20 min
# Description: To assess polyubiquitination of Arc in DIV13 primary cortical neurons, Arc was immunopurified from total lysates using an agarose-conjugated anti-Arc monoclonal antibody (Santa Cruz Biotechnology, clone C-7). Overexpressed WT and mutant Arc-Myc-FLAG in Neuro2a cells were immunopurified from total lysates with anti-FLAG M2 antibody conjugated to magnetic beads (Sigma-Aldrich, M8823). Immunopurified materials were separated using SDS–PAGE and electrophoretically transferred to a nitrocellulose membrane. To enhance the immunodetection of ubiquitin conjugated to Arc, the nitrocellulose membrane was placed between two layers of Whatman filter paper, submerged in distilled water, and autoclaved for 30 min. After autoclaving, the membrane was blocked in blocking solution (TBST supplemented with 5% milk) for 30 min and incubated overnight with an antibody recognizing ubiquitin (Santa Cruz Biotechnology, clone P4D1, 1:200) in blocking solution. Subsequent steps were carried out according to the western blot procedure described above.
# [11] = tested on: Neuro2a cells; conditions: for Fold-change to WT: protein half-life in Neuro2a
# Description: Next, we aimed to determine whether the K24, K33, K55, and K70 residues participate in Arc protein turnover. […] We also included K70 in this experiment because of its position in the coiled-coil and nuclear retention domains of Arc (Fig. 5e) as well as its relative proximity to K55. For this test, we used site-directed mutagenesis to generate plasmids that would allow overexpression of an acetyl-mimic/unmodifiable mutant Arc-Myc-FLAG protein (lysine (K) to glutamine (Q) mutant) for each of these four sites. After transfecting sets of Neuro2a cells with these different constructs, we inhibited translation with CHX and monitored overexpressed protein levels for up to 6 h after.
# Lysates were collected at the indicated time points and Arc-Myc-FLAG protein level analyzed in every sample by western blotting with an anti-FLAG antibody. Representative western blots are presented on top and quantification of data normalized to corresponding β-actin and presented as percentage of Arc-Myc-FLAG level (±SEM) at the initial time point after CHX application (t = 0). Curve represents exponential decay fit. b Estimate of protein half-life Arc for WT Arc-Myc-FLAG and each acetyl-mimic mutant is presented in table. c WT and acetyl-mutant Arc-Myc-FLAG polyubiquitination was determined in lysates from overexpressing Neuro2a cells. Lysates were immunoprecipitated with anti-FLAG and western blotted with anti-Ub or anti-Arc as indicated.
# Neuro2A cells were cultured in DMEM (supplemented with 10% fetal bovine serum (Gemini-Bio-Products, West Sacramento, CA), penicillin (50 units ml^−1), and streptomycin (50 µg ml^−1)) and transfected overnight using Lipofectamine 2000 (Invitrogen) according to the manufacturer’s protocol. The Neuro2A cell line was generously shared by Dr. Grace Gill.
# The pCMV6-Arc-Myc-DDK (FLAG) plasmid (MR206218) was purchased from OriGene Biotechnologies (Rockville, MD). The Arc-Myc-FLAG K24Q, K24R, K33Q, K55Q, K70Q, and K70R plasmids were generated with the help of the Q5 Site-Directed Mutagenesis Kit from New England BioLabs (Ipswich, MA) using WT pCMV6-Arc-Myc-FLAG as template. All constructs were verified by DNA sequencing.
# T3 sequence (O15379 whole entry): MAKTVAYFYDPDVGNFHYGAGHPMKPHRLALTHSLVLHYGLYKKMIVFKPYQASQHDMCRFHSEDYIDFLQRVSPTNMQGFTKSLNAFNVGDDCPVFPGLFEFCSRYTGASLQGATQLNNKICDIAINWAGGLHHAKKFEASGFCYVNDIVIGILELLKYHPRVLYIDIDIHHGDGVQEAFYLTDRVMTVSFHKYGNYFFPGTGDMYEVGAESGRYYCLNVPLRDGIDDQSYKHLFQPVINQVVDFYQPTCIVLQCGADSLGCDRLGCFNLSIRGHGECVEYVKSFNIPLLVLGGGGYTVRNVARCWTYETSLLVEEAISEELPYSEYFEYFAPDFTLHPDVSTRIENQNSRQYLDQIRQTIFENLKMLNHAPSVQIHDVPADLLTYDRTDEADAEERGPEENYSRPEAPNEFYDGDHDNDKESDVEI
# T3 sequence (Q9Y618 395-489 partner limits assumed): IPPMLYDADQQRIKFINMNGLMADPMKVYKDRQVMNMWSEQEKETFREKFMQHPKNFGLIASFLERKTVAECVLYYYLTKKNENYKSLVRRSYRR
# T1 sequence (Q13547 whole entry): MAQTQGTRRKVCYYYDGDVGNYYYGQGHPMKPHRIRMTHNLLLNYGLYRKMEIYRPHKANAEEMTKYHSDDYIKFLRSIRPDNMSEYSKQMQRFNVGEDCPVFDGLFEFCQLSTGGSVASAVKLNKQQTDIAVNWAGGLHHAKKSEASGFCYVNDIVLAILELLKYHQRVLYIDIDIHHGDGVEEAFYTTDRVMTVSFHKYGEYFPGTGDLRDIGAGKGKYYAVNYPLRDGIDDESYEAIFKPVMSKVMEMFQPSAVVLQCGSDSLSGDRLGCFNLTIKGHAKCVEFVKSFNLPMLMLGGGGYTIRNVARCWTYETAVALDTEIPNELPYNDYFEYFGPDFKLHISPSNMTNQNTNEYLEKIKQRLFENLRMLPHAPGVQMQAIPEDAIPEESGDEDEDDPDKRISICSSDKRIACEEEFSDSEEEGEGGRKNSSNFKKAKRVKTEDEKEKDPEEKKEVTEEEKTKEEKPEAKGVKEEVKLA
# T2 sequence (Q92769 whole entry): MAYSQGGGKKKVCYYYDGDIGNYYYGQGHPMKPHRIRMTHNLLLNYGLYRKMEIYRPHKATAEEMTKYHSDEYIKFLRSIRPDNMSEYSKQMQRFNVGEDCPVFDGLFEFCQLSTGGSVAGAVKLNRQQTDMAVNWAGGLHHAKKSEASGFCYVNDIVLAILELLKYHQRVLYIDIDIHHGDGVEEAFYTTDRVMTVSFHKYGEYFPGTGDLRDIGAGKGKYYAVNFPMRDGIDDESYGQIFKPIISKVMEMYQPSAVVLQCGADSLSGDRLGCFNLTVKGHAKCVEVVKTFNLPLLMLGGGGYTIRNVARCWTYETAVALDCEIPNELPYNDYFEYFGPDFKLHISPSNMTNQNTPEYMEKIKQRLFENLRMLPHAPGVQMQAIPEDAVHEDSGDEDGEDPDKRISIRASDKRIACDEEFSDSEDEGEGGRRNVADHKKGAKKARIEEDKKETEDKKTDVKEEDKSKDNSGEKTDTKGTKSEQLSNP
Molecule,impact on acetyl-H3K9 immunofluorescence (Z-score) [1],surface GluA1 puncta per dendrite µm [3],number of Arc puncta in dendritic projections [5],polyubiquitination of Arc-Myc-FLAG mutant [10],Estimated t½ [11] [h],Fold-change to WT [11],other results
CC(=O)Nc1ccc(C(=O)Nc2ccccc2N)cc1 [CI-994],strong impact,significant decrease in surface GluA1 levels,significantly greater number of Arc puncta,–,–,–,"inhibitory activity toward HDAC1 [2]: potent inhibition; occurrence of neuronal nuclei with above threshold nuclear Arc immunofluorescence signal, factor in relation to control (DMSO plus BDNF) ([4]; 16.7 µM, BDNF): ≥ 1.5; Percentage of cell with nuclear Arc immunostaining above 2σ threshold ([4]; chemogenomic (SMART) screen, BDNF-induced nuclear Arc expression, primary cortical neurons, BDNF control 19.5): 29.1%; inhibitory activity toward HDAC2 [6]: potent inhibition; inhibitory activity toward HDAC3 [7]: potent inhibition"
oxamflatin,strong impact,significant decrease in surface GluA1 levels,significantly greater number of Arc puncta,–,–,–,"Percentage of cell with nuclear Arc immunostaining above 2σ threshold [4]: 50.0%; rank among potentiators of BDNF-induced nuclear Arc expression in screen ([4]; 16.7 µM, three biological replicates): second; Fold-change — Normalized to DMSO control (BDNF) ([4]; nuclear Arc-positive cells relative to DMSO + BDNF control, negative values = decrease): 2.6 fold; total Arc protein vs BDNF plus vehicle control (western blot, Arc/β-actin) [8]: significantly more Arc protein; Arc protein half-life (regression analysis) [9]: ~ 112 min"
B1,–,–,–,noticeable decrease in polyubiquitination,6.66,2.40,–
B2,–,–,–,noticeable decrease in polyubiquitination,6.15,2.22,–
